Source: patent publication US7452546B2, “Particles containing agricultural active ingredients” (priority 1997, dated 2008)
Like-named read-outs stand apart in the source and are kept apart here.

Experiments:
[1] = Water saturation concentration of active ingredient; assay type: physicochemical; settings: room temperature stated for epoxiconazole
plants = settings: cited from earlier work
[2] = The Pesticide Manual, Eleventh Edition, 1997

SMILES: CC(C)(C)C(O)(CCc1ccc(Cl)cc1)Cn1cncn1 (stereo not drawn) [tebuconazole]
- water saturation concentration [1]: 32 ppm

SMILES: CC1COC(Cn2cncn2)(c2ccc(Oc3ccc(Cl)cc3)cc2Cl)O1 (stereo not drawn) [difenoconazole]
- phytotoxicity to plants (plants; [2]): can cause chlorosis in wheat

SMILES: Fc1ccc([C@]2(Cn3cncn3)O[C@H]2c2ccccc2Cl)cc1 (racemic) [epoxiconazole]
- water saturation concentration [1]: 7 ppm

SMILES: CC1(C)CCC(Cc2ccc(Cl)cc2)C1(O)Cn1cncn1 (stereo not drawn) [metconazole]
- phytotoxicity to plants (plants; in vivo): can cause stunting and yellowing of plants

SMILES: CCCCC(O)(Cn1cncn1)c1ccc(Cl)cc1Cl (stereo not drawn) [hexaconazole]
- phytotoxicity to plants (plants; in vivo): can cause damage to McIntosh apples

SMILES: CC(C)(C)C(O)C(Oc1ccc(-c2ccccc2)cc1)n1cncn1 (stereo not drawn) [bitertanol]
- phytotoxicity to plants (plants; [2]): can cause damage to fruit crops
